Patent US20240207410A1, “STABILIZED LIQUID COMPOSITIONS COMPRISING A LEVODOPA-TYROSINE CONJUGATE AND USES THEREOF” (NeuroDerm, Ltd., priority 2021, published 2024)
In brackets after ≈: the same amount, converted by molar mass. Where a SMILES comes first, the peptide text is derived from it. [ ]: non-standard residue; d: D form. pY = N[C@@H](Cc1ccc(OP(=O)(O)O)cc1)C(=O)O; Dopa = N[C@@H](Cc1ccc(O)c(O)c1)C(=O)O

What was measured:
Assay type in all cases: physicochemical
[1] = Long-term stability of 30% LD-Tyrosine/0.75% carbidopa at 2-8° C.
Experimental: The formulation also included 0.5% ascorbic acid (Asc), 0.5% N-acetyl cysteine (NAC) and 0.3% Tween 80. The formulation was stored at 2-8° C. for the time indicated, and % recovery and % LD-Tyr-DKP formation (an impurity) were tested. Percent recovery remained high over time. The DKP impurity accumulated over time.

[2] = Evaluation of solution stability, pH 7.4, 60° C.; conditions: phosphate buffer pH 7.4, about 1 mg/mL, after about 1 day
Experimental: A phosphate buffer solution at pH 7.4 was added to each of the compounds to dissolve the each of the compounds, and when necessary, a NaOH solution was added to adjust the pH of the mixture to prepare a solution of about 1 mg/mL. After storing this solution at 60° C. for about 1 day, HPLC purity (area percentage, %) was measured. The HPLC purity of the solution immediately after the preparation, or the HPLC purity of the compound, was subtracted from the HPLC purity after storage at 60° C. for about 1 day to obtain a HPLC purity difference.

[3] = Evaluation of solubility in water; conditions: for pH of filtrate: filtrate of the solubility test; for solubility at 24 h: thermodynamic from solid, water, shaken at 25° C. for 24 hours
Experimental: Water was added to each of the compounds to prepare a suspension, which was shaken at 25° C. for 24 hours, and then, filtration through a filter was performed to obtain a filtrate. A compound concentration in the filtrate was quantified using HPLC to obtain the solubility. Further, the pH of the filtrate was measured.

[4] = Evaluation of solution stability, pH 7.4, 25° C.; conditions: for HPLC purity difference: phosphate buffer pH 7.4, about 1 mg/mL, 25° C.
Experimental: A phosphate buffer solution at pH 7.4 was added to each of the compounds to dissolve the each of the compounds, and when necessary, a NaOH solution was added to adjust the pH of the mixture to prepare a solution of about 1 mg/mL. After storing this solution at 25° C. for about 1 day, HPLC purity (area percentage, %) was measured. The HPLC purity of the solution immediately after the preparation, or the HPLC purity of the compound, was subtracted from the HPLC purity after storage at 25° C. for about 1 day to obtain a HPLC purity difference. […] In Tables 9-1 and 9-2, “LDP-Ala” represents L-Tyrosine,N-L-alanyl-3-hydroxy-(9CI) and has the following structural formula: […]

Compound | HPLC purity difference [2] | pH of filtrate [3] | solubility at 24 h [3] | stability in aqueous solutions near neutrality [4] | HPLC purity difference ([4]; after about 1 day) | further results
C[C@@](Cc1ccc(O)c(O)c1)(NN)C(=O)O [Carbidopa, carbidopa, reference compound] |  |  |  |  |  | mg/mL (concentration in formulation) ([1]; 1 month): 7.32 mg/mL; mg/mL (concentration in formulation) ([1]; 1 week): 7.36 mg/mL; mg/mL (concentration in formulation) ([1]; 2 months): 7.32 mg/mL; mg/mL (concentration in formulation) ([1]; 2 weeks): 7.30 mg/mL; mg/mL (concentration in formulation) ([1]; 3 months): 7.35 mg/mL; mg/mL (concentration in formulation) ([1]; t = 0): 7.37 mg/mL
C[C@H](N)C(=O)N[C@@H](Cc1ccc(OP(=O)(O)O)c(O)c1)C(=O)O [Example 1, (2S)-2-[[(2S)-2-aminopropanoyl]amino]-3-(3-hydroxy-4-phosphonooxyphenyl) propanoic acid] | −1.61% | 2.6 | 15.6 mg/mL (≈ 44.8 mM) | stable | −0.03% | 
N[C@@H](Cc1ccc(O)c(O)c1)C(=O)N[C@@H](Cc1ccc(OP(=O)(O)O)c(O)c1)C(=O)O [Example 2, (2S)-2-[[(2S)-2-amino-3-(3,4-dihydroxyphenyl)propanoyl]amino]-3-(3-hydroxy-4-phosphonooxyphenyl) propanoic acid] |  | 2.6 | > 31.1 mg/mL |  | −3.53% | 
NCCCC[C@H](N)C(=O)N[C@@H](Cc1ccc(OP(=O)(O)O)c(O)c1)C(=O)O [Example 8, (2S)-2-[[(2S)-2,6-diaminohexanoyl]amino]-3-(3-hydroxy-4-phosphonooxyphenyl) propanoic acid] |  |  |  | stable |  | HPLC purity difference ([4]; after 1.9 days): 0.25 (after 1.9 days) %
N[C@@H](Cc1ccc(OP(=O)(O)O)cc1)C(=O)N[C@@H](Cc1ccc(O)c(O)c1)C(=O)O [Example 10, (2S)-2-[[(2S)-2-amino-3-(4-phosphonooxyphenyl)propanoyl]amino]-3-(3,4-dihydroxyphenyl) propanoic acid] (H-[pY]-[Dopa]-OH) |  |  |  |  | −0.67% | 
C[C@H](N)C(=O)N[C@@H](Cc1ccc(O)c(O)c1)C(=O)O [LDP-Ala, L-Tyrosine,N-L-alanyl-3-hydroxy-(9CI), reference compound] (H-Ala-[Dopa]-OH) | −25.00% |  |  |  | −3.80% | 
